This assay deals with cholesterol biosynthesis in HepG2 cells. Kind of assay: Metabolic labeling of HepG2 cells with [3H]acetate; radio-HPLC sterol profile (inhibition of cholesterol biosynthesis). Type of assay: cell-based, human. Particulars: HepG2; for activity at 10 µM: Homo sapiens, 24 h, Table I, sterol level normalized to normal medium (1.00), mean of 4 experiments; for activity at 10 µM / FF-MAS / cholesterol / desmosterol / lanosterol / lathosterol / zymosterol+7-dehydrocholesterol: 10 μM compound; for FF-MAS / cholesterol / desmosterol / lanosterol / lathosterol / zymosterol+7-dehydrocholesterol: Table II (arranged by sterol profile), normalized to normal medium (1.00). On the procedure:
In accordance with the aims of the invention, the effect of the novel compounds on inhibition of cholesterol biosynthesis is assessed. An ex vivo method of metabolic labeling of immortal human hepatocytes is employed. The radioactively labeled early precursor of cholesterol [3H]acetate is added to cells with or without addition of an active new compound.
An ex vivo method of metabolic labeling of immortal human hepatocytes is employed. The radioactively labeled early precursor of cholesterol [3H]acetate is added to cells with or without addition of an active compound.
Cell culture incubation with potential inhibitors of cholesterol biosynthesis and statins Human hepatoma cell line (HepG2-ATCC No. HB-8065) is split in the recommended ratio (1:2-3) into 75 cm^2 cell flasks using two flasks per experimental condition. Cells are incubated at 37° C. with 5% CO2 in Dulbeco's modified Eagle medium (DMEM high (Sigma)) containing 5% calf serum (Sigma) and 1% L-glutamine (Sigma). After 24-hours-culturing in the growth medium, the medium is replaced with the one supplemented with 10 μM concentration of a LK compound, potential inhibitor of cholesterol biosynthesis. 10 μM solution of atorvastatin, inhibitor of HMG-CoA reductase, serves as a positive control.
After 24 hours the growth medium is changed and [^3H]acetate (NEN™ Life Science Products) added in a concentration of 40 μCi per ml of the medium (400 μCi per flask). After 4 hours cells are harvested using 2 ml of trypsin (Sigma) and the cell pellet is resuspended in 1 ml of distilled water. Cells are homogenized using the freeze and thaw method. From cell homogenate sterols are extracted and protein concentration determined using the Bio-Rad reagent.
Homogenates are transferred into 4 ml glass vial and sterols are extracted in 3 ml of extraction solution (75% n-heptane: 25% isopropanol (vol./vol.)) with ergosterol as an internal standard. For better extraction 100 μl of 0.3M NaH2PO4 (pH=1.0) is added. Closed vials are vigorously shaken (1800 rpm) for 2 hours. After extraction procedure vials are centrifuged (2000 g, 10 min) and the organic phase is transferred to fresh conical glass tubes. Extraction procedure is repeated using 1 ml of extraction solution for 15 min. Organic phases are pooled. Primary extracts are dried in vacuum centrifuge, redissolved in 3 ml of n-heptane, and incubated for 10 min at room temperature with mild shaking. After centrifugation (10 min, 2000 g) extracts are transferred into fresh glass tubes and stored in dark and cold.
The organic phase is dried, reconstituted in mobile phase for reversed phase HPLC separation and loaded onto a-HPLC column, Prism-RPN, 5 μm, 250×4,6 mm running in 100% acetonitrile at 1.00 ml/min at 40° C. temperature. Scintillation liquid is added after UV detection at 30 ml/h, at room temperature, to evaluate tritium labeled sterols on a radio detector.
Sterols are determined by comparing the eluted peaks with runs of commercial standards of lanosterol, ergosterol, desmosterol, zymosterol, 7-dehydrocholesterol, lathosterol and cholesterol or laboratory standards (FF-MAS-4,4-Dimethylcholesta-8(9),14,24-triene-3β-ol- and T-MAS-4,4-Dimethylcholesta8(9),24,diene-3,6-ol, Laboratory of Reproductive Biology, The Juliane Marie Center for Children, Women and Reproduction, University Hospital of Copenhagen, DK-2100 Copenhagen, Denmark). Results were normalized on ergosterol quantity and protein concentration. Results are presented as a mean from 4 separated experiments.
The influence of a 10 μM solution of novel LK-substances on cholesterol biosynthesis in the assay on HepG2 cells is presented in Table I. Compounds are arranged according to the building blocks, three of them are 2-pyridineethanols, 2-pyridineethylpiperazines and pyridinemethylpiperazines.
Normal medium pertains to cell cultures without a compound of the invention. Its sterol levels were used for normalization. 10 μM solution of atorvastatin serves as a positive control.

The mark [1] stands for this setting: read-out: zymosterol+7-dehydrocholesterol.

Structures can show the parent of a compound that is named as a salt. Where two headings read alike, the source gives them in different places.

Regarding `OC(CN1CCN(CCc2ccccc2)CC1)c1cccnc1` (centres unmarked) [LK-980, 2-(4-Phenethylpiperazine-1-yl)-1-(pyridine3-yl)-1-ethanol trihydrobromide], the FF-MAS was determined as 2.54, the cholesterol is on record as 0.05, the desmosterol came out at 0.00 and the lanosterol was 0.96. Also, the lathosterol was 0.49 and the “zymosterol+7-dehydrocholesterol” value is recorded as 1.02. The activity at 10 µM (read-out: FF-MAS) was 254%. Further, the activity at 10 µM (read-out: cholesterol) stood at 5%. In addition, the activity at 10 µM (read-out: desmosterol) was 0%. The activity at 10 µM (read-out: lanosterol) stood at 96%. Where the note is “read-out: lathosterol”, the activity at 10 µM stood at 49%. Under setting [1], the activity at 10 µM was 102%.
Compound `c1ccc(CCN2CCN(CCc3cccnc3)CC2)cc1` [LK-9100, 1-Phenethyl-4-(2-(pyridine-3-yl)ethyl)piperazine trihydrobromide] gave an FF-MAS of 2.41, a cholesterol of 0.00, a desmosterol of 0.00 and a lanosterol of 0.83. For the same compound, the lathosterol was 0.30 and the “zymosterol+7-dehydrocholesterol” value was 0.74. Besides, for the setting “read-out: FF-MAS”, the activity at 10 µM amounted to 241%. Moreover, the activity at 10 µM (read-out: cholesterol) is 0%. Besides, under “read-out: desmosterol”, the activity at 10 µM was 0%. Further, where the note is “read-out: lanosterol”, the activity at 10 µM was determined as 83%. In addition, the activity at 10 µM (read-out: lathosterol) was determined as 30%. Besides, the activity at 10 µM under setting [1] was determined as 74%.
Consider `O=C(Cc1cccnc1)N1CCN(CCc2ccccc2)CC1` [LK-9101B, 1-(4-Phenethylpiperazin-1-yl)-2-(pyridine-3-yl)ethanone], for which the FF-MAS is listed as 1.36, the cholesterol is 0.12, the desmosterol was determined as 0.10 and the lanosterol is reported as 0.94. Moreover, the lathosterol is recorded as 0.54 and the “zymosterol+7-dehydrocholesterol” value came out at 1.55. Moreover, the activity at 10 µM (read-out: FF-MAS) is 136%. For the same compound, for the setting “read-out: cholesterol”, the activity at 10 µM was 12%. Where the note is “read-out: desmosterol”, the activity at 10 µM came to 10%. Where the note is “read-out: lanosterol”, the activity at 10 µM came out at 94%. For the same compound, for the setting “read-out: lathosterol”, the activity at 10 µM stood at 54%. Besides, the activity at 10 µM under setting [1] was determined as 155%.
As for `COc1ccc(CN2CCN(CCc3ccccc3)CC2)cn1` [LK-9106, 1-((6-Methoxypyridin-3-yl)methyl)-4-phenethylpiperazine trihydrobromide], the FF-MAS is 2.00, the cholesterol came out at 0.00, the desmosterol is 0.00 and the lanosterol was 0.52. Also, the lathosterol was 0.31 and the “zymosterol+7-dehydrocholesterol” value is on record as 0.46. Further, the activity at 10 µM (read-out: FF-MAS) amounted to 200%. Moreover, for the setting “read-out: cholesterol”, the activity at 10 µM turned out to be 0%. For the same compound, under “read-out: desmosterol”, the activity at 10 µM turned out to be 0%. The activity at 10 µM (read-out: lanosterol) was found to be 52%. In addition, the activity at 10 µM (read-out: lathosterol) was 31%. For the same compound, the activity at 10 µM under setting [1] was found to be 46%.
On to `FC(F)(F)c1ccc(CN2CCN(CCc3ccccc3)CC2)cn1` [LK-9107, 1-Phenethyl-4-((6(trifluoromethyl)pyridine-3-yl)methyl)piperazine trihydrobromide], for which the FF-MAS was 1.29, the cholesterol is 0.00, the desmosterol was determined as 0.00 and the lanosterol is 0.36. The lathosterol came to 0.11 and the “zymosterol+7-dehydrocholesterol” value is given as 0.20. The “sterol profile (in words)” value (10 μM, preferred profile: lowered cholesterol, no accumulation of lanosterol and post-lanosterol intermediates) is “meets these criteria in considerable extent”. Moreover, the activity at 10 µM (read-out: FF-MAS) is 129%. Also, where the note is “read-out: cholesterol”, the activity at 10 µM stood at 0%. Further, the activity at 10 µM (read-out: desmosterol) was 0%. In addition, where the note is “read-out: lanosterol”, the activity at 10 µM is 36%. In addition, the activity at 10 µM (read-out: lathosterol) amounted to 11%. In addition, under setting [1], the activity at 10 µM was found to be 20%.
Turning to `c1ccc(CCN2CCN(Cc3cccnc3)CC2)cc1` [LK-9108, 1-Phenethyl-4-(pyridine-3-ylmethyl)piperazine trihydrobromide], the FF-MAS amounted to 3.10, the cholesterol is given as 0.00, the desmosterol came out at 0.00 and the lanosterol amounted to 1.10. Further, the lathosterol came out at 0.74 and the “zymosterol+7-dehydrocholesterol” value is recorded as 1.40. For the same compound, the activity at 10 µM (read-out: FF-MAS) was determined as 310%. Besides, the activity at 10 µM (read-out: cholesterol) came out at 0%. Further, the activity at 10 µM (read-out: desmosterol) turned out to be 0%. In addition, the activity at 10 µM (read-out: lanosterol) is 110%. Moreover, under “read-out: lathosterol”, the activity at 10 µM was found to be 74%. For the same compound, under setting [1], the activity at 10 µM came out at 140%.
Regarding `c1ccc(CCN2CCN(Cc3ccc(N4CCOCC4)nc3)CC2)cc1` [LK-9109B, 4-(5-((4-Phenethylpiperazin-1-yl)methyl)pyridine-2-yl)morpholine], the FF-MAS is 6.50, the cholesterol is given as 0.00, the desmosterol was determined as 0.29 and the lanosterol was determined as 0.95. The lathosterol is 0.09 and the “zymosterol+7-dehydrocholesterol” value was determined as 1.00. Also, the “FF-MAS accumulation (in words)” value (10 μM) was “notably accumulate FF-MAS”. Besides, the activity at 10 µM (read-out: FF-MAS) worked out at 650%. Also, where the note is “read-out: cholesterol”, the activity at 10 µM turned out to be 0%. For the same compound, the activity at 10 µM (read-out: desmosterol) came out at 29%. In addition, the activity at 10 µM (read-out: lanosterol) is 95%. In addition, the activity at 10 µM (read-out: lathosterol) amounted to 9%. In addition, the activity at 10 µM under setting [1] amounted to 100%.
`OC(CN1CCN(CCc2ccccc2)CC1)c1ccncc1` (centres unmarked) [LK-9110B, 2-(4-Phenethylpiperazine-1-yl)-1-(pyridine-4-yl)ethanol] came in with an FF-MAS of 3.74, a cholesterol of 0.00, a desmosterol of 0.17 and a lanosterol of 0.96. For the same compound, the lathosterol worked out at 0.78 and the “zymosterol+7-dehydrocholesterol” value is 1.37. Also, the activity at 10 µM (read-out: FF-MAS) amounted to 374%. In addition, the activity at 10 µM (read-out: cholesterol) is 0%. For the same compound, the activity at 10 µM (read-out: desmosterol) came to 17%. Where the note is “read-out: lanosterol”, the activity at 10 µM amounted to 96%. The activity at 10 µM (read-out: lathosterol) amounted to 78%. Besides, the activity at 10 µM under setting [1] came out at 137%.
Take `FC(F)(F)c1cnc(N2CCCN(CCc3ccccc3)CC2)c(Cl)c1` [LK-9115, 1-(3-Chloro-5-(trifluoromethyl)pyridine-2-yl)-4-phenethyl-1,4-diazepane trihydrobromide]: the FF-MAS amounted to 4.42, the cholesterol was determined as 0.00, the desmosterol turned out to be 0.00 and the lanosterol amounted to 0.84. Further, the lathosterol came to 0.21 and the “zymosterol+7-dehydrocholesterol” value amounted to 0.91. Also, the activity at 10 µM (read-out: FF-MAS) was 442%. Besides, the activity at 10 µM (read-out: cholesterol) came to 0%. For the same compound, where the note is “read-out: desmosterol”, the activity at 10 µM was 0%. The activity at 10 µM (read-out: lanosterol) was determined as 84%. The activity at 10 µM (read-out: lathosterol) stood at 21%. Also, the activity at 10 µM under setting [1] is 91%.

Values taken from US20090018118A1, “HETEROCYCLIC COMPOUNDS” (priority 2005, published 2009).
